In patent publication US20030096264A1, “Multi-parameter high throughput screening assays (MPHTS)” (Psychiatric Genomics, Inc., priority 2001, published 2003):

What was measured:
NBFL cell line = assay: RT-PCR validation of differential expression in NBFL cells treated with valproate; assay type: cell-based, human; settings: valproate treated vs untreated, normalized to GAPDH
Method: To validate differential expression measurements that were obtained using microarrays, expression levels were also measured using a reverse transcription polymerase chain reaction (RT-PCR) assay for five genes having the highest expression ratio in Table 3: nidogen (SEQ ID NO:25; σ=1.7), silver (SEQ ID NO:26; σ=1.6), dopamine β-hydroxylase (SEQ ID NO:53; σ=-1.7), dopa decarboxylase (SEQ ID NO:54; σ=−2) and chromogranin B (SEQ ID NO:55; σ=−2.1). These RT-PCR experiments were performed according to routine methods that are known in 10 the art. Briefly, RNA from the NBFL cell line treated with or without valproate was primed with oligo-dT and reverse transcribed. The resultant cDNA was subjected to either 25 or 30 rounds of PCR amplification, depending on the absolute expression level of the gene tested. The amount of PCR product generated from each sample was normalized to the amount of GAPDH amplified from each sample and a fold-change relative to valproate treatment was calculated. β-actin was used as an additional control.
The results from these experiments are shown graphically in FIG. 3. As expected, no change in β-actin (B-ACT) expression was detected (+/− one-fold) when cells were treated with valproate. However, a greater than 2-fold change in expression levels was measured for each of the five other genes tested: nidogoen (NID), silver (SIL), dopamine β-hydroxylase (DBH), dopa decarboxylase (DDC) and chromogranin B (CG-B).

rat hippocampus = assay: In vivo expression profile in hippocampus of rats treated with valproate; settings: three weeks
Method: Specifically, in these experiments rats were treated with valproate, and gene expression levels in the hippocampus of each rat were measured for a plurality of different genes.
In more detail, twenty rats were divided into two groups, containing ten individuals each. One group of ten rats was used as the control group, whereas the other group functioned as the experimental group. Each rat in the experimental group was injected twice daily with 250 mg valproate for each kilogram of the rat's body mass. Each rat in the control group was similarly injected, but with a vehicle that contained no active ingredient. After three weeks dosing, the rats were sacrificed and their brains removed. Each rat's brain was divided in half. The hippocampus was then removed from each half and flash frozen. The half hippocampus tissue from the rats in each group was combined and total RNA was extracted from the tissue using TriReagent (Invitrogen Corp., Carlsbad Calif.) following the manufacturer's instructions. mRNA was purified with Oligotext (Qiagen Inc., Valencia Calif.) following the manufacturer's recommended protocol. mRNA quality and concentration was determined using the Agilent Bioanalyzer.
For expression profile analysis, mRNA from the pooled tissues of the control group was measured with Cy3 dye, and mRNA from the pooled tissues of the experimental group was measured with Cy5 dye. The labeled probes were then mixed and hybridized to a Rat Tox3 microarray (Incyte Genomics, Palo Alto Calif.). The relative signal intensity from each fluorescent dye was measured for each element (i.e., for each “gene”) on the microarray, normalized for differences, and the relative difference in expression level determined.
The relative differences in expression levels for various genes are plotted in FIG. 4. Specifically, each point on the plot represents a gene whose expression level was measured in both the experimental and control groups. Each point's position along the horizontal axis indicates the relative Cy3 signal intensity measured for that gene and reflects, therefore, the gene's expression in rats that were not treated with valproate. A point's position along the vertical axis indicates the relative Cy5 signal intensity measured for the corresponding gene, reflecting the gene's expression in the hippocampus of rats that were treated with valproate. […] By contrast, changes by at least a factor of 1.5 (i.e., θ≧1.5) indicate significant changes in expression in response to the valproate treatment (identified using a Rat Toxicology array from Incyte, Palo Alto, Calif.). These genes are listed in Table 5, below, along with GenBank Accession number for those genes. Again, a cDNA sequence for each gene listed in Table 5 is also provided in the accompanying Sequence Listing, and its sequence identifier is specified in Table 5 along with the GenBank Accession number.

CCCC(CCC)C(=O)O [valproate]
2.4: Φ: Rat RT1-DOb gene, partial cds. (rat hippocampus; 250 mg/kg twice daily, AB008110 SEQ ID NO: 63) | Φ: Rat cytochrome P450 IV A1 (CYP4A1) gene, complete cds. (rat hippocampus; 250 mg/kg twice daily, M57718 SEQ ID NO: 64)
−1.7: Φ: Rat calcincurin A mRNA, complete cds. (rat hippocampus; 250 mg/kg twice daily, M29275 SEQ ID NO: 98)
−1.5: Φ: Rat cytosolic branch chain aminotransferase BCATc mRNA, partial cds. (rat hippocampus; 250 mg/kg twice daily, AF 165887 SEQ ID NO: 111) | Φ: hypothetical protein (rat hippocampus; 250 mg/kg twice daily, CAB70864 SEQ ID NO: 117) | Φ: Rat mRNA for 14-3-3 protein theta-subtype, complete cds. (rat hippocampus; 250 mg/kg twice daily, D17614 SEQ ID NO: 109) | Φ: Rat clathrin heavy chain mRNA, complete cds. (rat hippocampus; 250 mg/kg twice daily, J03583 SEQ ID NO: 112) | Φ: Rat stress activated protein kinase alpha I mRNA, complete cds. (rat hippocampus; 250 mg/kg twice daily, L27111 SEQ ID NO: 105) | Φ: Murine phosphoprotein phosphatase mRNA, complete cds. (rat hippocampus; 250 mg/kg twice daily, M8 1475 SEQ ID NO: 114) | Φ: Rat nuclear-encoded mitochondrial ATP synthase beta-subunit mRNA, 5′ end. (rat hippocampus; 250 mg/kg twice daily, M25301 SEQ ID NO: 107) | Φ: Rat thymosin beta-4 mRNA, complete cds. (rat hippocampus; 250 mg/kg twice daily, M34043 SEQ ID NO: 104) | Φ: {clone E512, estrogen induced gene} [rats, Sprague-Dawley, hypothalamus, mRNA Partial, 259 nt]. (rat hippocampus; 250 mg/kg twice daily, S74327 SEQ ID NO: 118) | Φ: Rat protein kinase C-binding protein NELL2 mRNA, complete cds. (rat hippocampus; 250 mg/kg twice daily, U48245 SEQ ID NO: 106) | Φ: Mouse hippocampal amyloid precursor protein mRNA, complete cds. (rat hippocampus; 250 mg/kg twice daily, U84012 SEQ ID NO: 116) | Φ: Rat CaMII gene, exon 1 (and joined cds). (rat hippocampus; 250 mg/kg twice daily, X13833 SEQ ID NO: 113) | Φ: Mouse rac1 gene. (rat hippocampus; 250 mg/kg twice daily, X57277 SEQ ID NO: 115) | Φ: Rat mRNA for ubiquitin and ribosomal protein S27a. (rat hippocampus; 250 mg/kg twice daily, X81839 SEQ ID NO: 108) | Φ: Rat MAL protein gene and mRNA. (rat hippocampus; 250 mg/kg twice daily, X82557 SEQ ID NO: 110)
2.1: Φ: Mouse chromosome 18 clone mgsriii-pl-3084 strain RIII Fibroblast cell line C 127, complete sequence. (rat hippocampus; 250 mg/kg twice daily, AC007665 SEQ ID NO: 75) | Φ: Rat mRNA for histamine N-methyltransferase, complete cds. (rat hippocampus; 250 mg/kg twice daily, D10693 SEQ ID NO: 72) | Φ: Rat long terminal repeat DNA sequence. (rat hippocampus; 250 mg/kg twice daily, L19707 SEQ ID NO: 73) | Φ: Rat kallikrein-binding protein (RKBP) gene. (rat hippocampus; 250 mg/kg twice daily, M67496 SEQ ID NO: 74) | Φ: {clone 6B1, intracisternal A-particle derived LTR fragment} [rats, Genomic, 208 nt]. (rat hippocampus; 250 mg/kg twice daily, S51653 SEQ ID NO: 76)
2.2: Φ: Mouse LDL receptor member LR3 mRNA, complete cds. (rat hippocampus; 250 mg/kg twice daily, AF077847 SEQ ID NO: 70) | Φ: Mouse chromosome X clone BAC B22804, complete sequence. (rat hippocampus; 250 mg/kg twice daily, AF121351 SEQ ID NO: 71) | Φ: Rat mRNA for delta-4-3-ketosteroid 5-beta-reductase, complete cds. (rat hippocampus; 250 mg/kg twice daily, D17309 SEQ ID NO: 68) | Φ: Rat 3-alpha-hydroxysteroid dehydrogenase (3-alpha-HSD) mRNA, complete cds. (rat hippocampus; 250 mg/kg twice daily, M64393 SEQ ID NO: 69)
2: Φ: Mouse TCR beta locus from bases 250554 to 501917 (section 2 of 3) of the complete sequence. (rat hippocampus; 250 mg/kg twice daily, AE000664 SEQ ID NO: 79) | Φ: Mouse Naip3 gene, exon 1; neuronal apoptosis inhibitory protein 1 (Naip 1) and general transcription factor IIH polypeptide 2 (Gtf2h2) genes, complete cds. (rat hippocampus; 250 mg/kg twice daily, AF242432 SEQ ID NO: 80) | Φ: Rat mRNA for Sulfotransferase K2. (rat hippocampus; 250 mg/kg twice daily, AJ238392 SEQ ID NO: 77) | Φ: Rat mRNA for Mx3 protein. (rat hippocampus; 250 mg/kg twice daily, X52713 SEQ ID NO: 78)
1.8: Φ: Mouse BAC-146N21 Chromosome X contains iduronate-2-sulfatase gene; complete sequence. (rat hippocampus; 250 mg/kg twice daily, AC002315 SEQ ID NO: 96) | Φ: Mouse (Mus musculus domesticus) X chromosome region similar to Human DXS963E, complete sequence. (rat hippocampus; 250 mg/kg twice daily, AF130357 SEQ ID NO: 97) | Φ: Rat gene encoding tyrosine aminotransferase. (rat hippocampus; 250 mg/kg twice daily, AJ010709 SEQ ID NO: 93) | Φ: unnamed protein product (rat hippocampus; 250 mg/kg twice daily, BAB15010 SEQ ID NO: 90) | Φ: Mouse mRNA for plexin 2, complete cds. (rat hippocampus; 250 mg/kg twice daily, D86949 SEQ ID NO: 95) | Φ: Rat Eker rat-associated intracisternal-A-particle element. (rat hippocampus; 250 mg/kg twice daily, U23776 SEQ ID NO: 94) | Φ: Rat mRNA for cdc2 promoter region. (rat hippocampus; 250 mg/kg twice daily, X60767 SEQ ID NO: 92) | Φ: Rat mRNA for Tsx gene. (rat hippocampus; 250 mg/kg twice daily, X99797 SEQ ID NO: 91)
1.9: Φ: pol polyprotein (rat hippocampus; 250 mg/kg twice daily, AAC31805 SEQ ID NO: 85) | Φ: CGI-83 protein (rat hippocampus; 250 mg/kg twice daily, AAD34078 SEQ ID NO: 89) | Φ: CGI-86 protein (rat hippocampus; 250 mg/kg twice daily, AAD34081 SEQ ID NO: 88) | Φ: Mouse chromosome 10, clone RP21-247L16, complete sequence. (rat hippocampus; 250 mg/kg twice daily, AC012302 SEQ ID NO: 87) | Φ: Mouse MHC class III region RD gene, partial eds; Bf, C2, G9A, NG22, G9, HSP70, HSP70, HSC70t, and smRNP genes, complete cds; G7A gene, partial cds; and unknown genes. (rat hippocampus; 250 mg/kg twice daily, AF109906 SEQ ID NO: 86) | Φ: Rat senescence marker protein 2B gene, exons 1 and 2. (rat hippocampus; 250 mg/kg twice daily, M29302 SEQ ID NO: 81) | Φ: Rat (clone pRHx1) hemopexin mRNA, complete cds. (rat hippocampus; 250 mg/kg twice daily, M62642 SEQ ID NO: 84) | Φ: Rat LEW/N clone D0N544 satellite DNA sequence. (rat hippocampus; 250 mg/kg twice daily, U06685 SEQ ID NO: 82) | Φ: Rat Eker rat-associated intracisternal-A-particle element. (rat hippocampus; 250 mg/kg twice daily, U23776 SEQ ID NO: 83)
2.3: Φ: Rat strain Long Evans shaker myelin basic protein (Mbp) gene, intron 3, interrupted by ETn retrotransposon. (rat hippocampus; 250 mg/kg twice daily, AF076337 SEQ ID NO: 65) | Φ: Mouse BAC 171m12 MESDC1 (Mesdc1) and MESDC2 (Mesdc2) genes, complete cds. (rat hippocampus; 250 mg/kg twice daily, AF311213 SEQ ID NO: 67) | Φ: Rat (LxRN3) LINE 1 repeat element, ORF II. (rat hippocampus; 250 mg/kg twice daily, M60824 SEQ ID NO: 66)
2.6: Φ: Rat L1 retroposon/pseudogene; 3′ flank. (rat hippocampus; 250 mg/kg twice daily, X61298 SEQ ID NO: 60)
3.6: Φ: Rat L1 retrotransposon mlvi2-rn14, 5′UTR and putative RNA binding protein 1 gene, partial cds. (rat hippocampus; 250 mg/kg valproate twice daily, vs vehicle, U87602 SEQ ID NO: 56)
3.1: Φ: Mouse chromosome 18 clone RP23-16108, complete sequence. (rat hippocampus; 250 mg/kg twice daily, AC020967 SEQ ID NO: 57)
2.5: Φ: Mouse chromosome unknown clone rp21-657p21 strain 129S6/SvEvTac, complete sequence. (rat hippocampus; 250 mg/kg twice daily, AC005743 SEQ ID NO: 62) | Φ: Mouse TCR beta locus from bases 250554 to 501917 (section 2 of 3) of the complete sequence. (rat hippocampus; 250 mg/kg twice daily, AE000664 SEQ ID NO: 61)
greater than 2 fold: change in expression level by RT-PCR: chromogranin B (CG-B) (NBFL cell line) | change in expression level by RT-PCR: dopa decarboxylase (DDC) (NBFL cell line) | change in expression level by RT-PCR: dopamine β-hydroxylase (DBH) (NBFL cell line) | change in expression level by RT-PCR: nidogoen (NID) (NBFL cell line) | change in expression level by RT-PCR: silver (SIL) (NBFL cell line)
2.8: Φ: Mouse TCR beta locus from bases 250554 to 501917 (section 2 of 3) of the complete sequence. (rat hippocampus; 250 mg/kg twice daily, AE000664 SEQ ID NO: 58)
2.7: Φ: Rat Sprague-Dawley UDP-glucuronosyltransferase (UGT2B12) mRNA, complete cds. (rat hippocampus; 250 mg/kg twice daily, U06273 SEQ ID NO: 59)
−1.6: Φ: Rat calmodulin mRNA, complete cds. (rat hippocampus; 250 mg/kg twice daily, AF178845 SEQ ID NO: 102) | Φ: rat myelin basic protein (mbp) gene mrna. (rat hippocampus; 250 mg/kg twice daily, K00512 SEQ ID NO: 99) | Φ: Mouse myelin proteolipid protein mRNA, complete cds. (rat hippocampus; 250 mg/kg twice daily, M15442 SEQ ID NO: 103) | Φ: Rat mRNA for amyloidogenic glycoprotein (rAG), cognate of Human A4 amyloid precursor protein. (rat hippocampus; 250 mg/kg twice daily, X07648 SEQ ID NO: 101) | Φ: Rat mRNA for Myelin-associated/Oligodendrocytic Basic Protein-81. (rat hippocampus; 250 mg/kg twice daily, X87900 SEQ ID NO: 100)
